Results on six compounds are retold here after patent US20250381157A1, “ANTIMICROBIAL COMPOUNDS” (priority 2022, published 2025).

In data set [1] the test system is CAMP gene (encoding human cathelicidin). Description: Induction test: ProLL-37-luciferase fusion protein expression in HT-29 CampLuc MN8 reporter cell line. It is filed as cell-based. As to conditions: after 24h; luminescence relative to untreated cells. On the procedure: FIG. 2: Induction test. […] Statistical analysis was performed by comparison of each compound-treatment conditions to the corresponding vehicle control using two-way ANOVA with Dunnett post-hoc test. Only significant changes were indicated, ** p<0.01, *** p<0.001, **** p<0.0001.
MN8CampLuc cells were handled according to Nylén et. al. with the following exception when predifferention of cells were performed before induction: […]

The subject of data set [2] is Enterotoxigenic Escherichia coli (ETEC) (ATCC ® 35401 ™, H10407). In kind it is in vivo, mouse. As to conditions: for Clinical observation (Mean Score) Hunched Posture / Clinical observation (Mean Score) Rough coat / Clinical observation (Mean Score) hyperpnea: 1 mg/kg PO q12h 9 days, 0=absent 1=present. On the procedure:
FIG. 3: Schematic protocol for neutropenia mouse model
A schematic of the experimental model is depicted in FIG. 3.
That experiment was performed in the presence of cyclophosphamide, which is known to cause febrile neutropenia due to translocation of bacteria to vital organs.

For a further data set, the system named is Caco-2 cells. Briefly: Caco-2 cell study (permeability, efflux). In kind it is in vitro ADME. As to conditions: for Active efflux: Caco-2. An excerpt:
Caco-2 cells are used as a model of the intestinal epithelial barrier.
Background: Caco-2 monolayers are a common model of the intestinal barrier.

A further data set in a line: Plasma stability Mouse. In kind it is in vitro ADME.
The nature of a further data set: Plasma stability Rat. It is filed as in vitro ADME.
Data set [3] is described as follows: Stability SGD, SIF w. Enzymes. In kind it is in vitro ADME.
The nature of data set [4]: Rat pharmacokinetics (IV, PO). In kind it is in vivo. As to conditions: for half-life / bioavailability: in vivo; for bioavailability: oral.
A further data set in a line: in vivo. As to conditions: mouse, po, 7 Days PO once daily MTD - mouse.
Data set [5] in a line: Dose escalation toxicity and MTD in mouse.
The mark [6] stands for this setting: 1 mg/kg, PO, twice daily(q12h), 9 days.
Setting [7] is: individual animals, 1 mg/kg, PO, twice daily(q12h), 9 days.
The mark [8] stands for this setting: PO, read-out: Elimination T½ (min) PO - rat.
The mark [9] stands for this setting: intravenous, PIV, read-out: Elimination T½ (min) PIV - rat.

SMILES strings stand for the structures. Read-outs that look alike come from different tables or passages of the source.

Usually bioavailability stands for dose-corrected exposure relative to a reference, in per cent. Read a low bioavailability as little systemic uptake.

On to `C#CCOCC(=O)N(C)Cc1ccc(C(=O)Nc2ccccc2N)cc1` [Compound 2.1, N-(2-aminophenyl)-4-[(methyl{[(prop-2-yn-1-yl)oxy]acetyl}amino)methyl]benzamide], for which the “expression of ProLL-37-luciferase fusion protein” value in [1] is on record as “induced expression”.
On the same count and under the same terms, as for `CCC(=O)NCCOCC(=O)N(C)Cc1ccc(C(=O)Nc2ccccc2N)cc1` [Compound 2.2, N-(2-aminophenyl)-4-{[N-methyl-2-(2-propanamidoethoxy)acetamido]methyl}benzamide], the entry is “induced expression”.
Consider `C#CCCCC(=O)Oc1ccc(C(=O)Nc2ccccc2N)cc1` [Compound 2.3, 4-[(2-aminophenyl)carbamoyl]phenyl hex-5-ynoate], for which the “expression of ProLL-37-luciferase fusion protein” value in data set [1] was “induced expression”.
For the compound `Nc1ccccc1NC(=O)c1ccc(CNC(=O)OCc2cccnc2)cc1` [Entinostat, Pyridin-3-ylmethyl (4-((2-aminophenyl)-carbamoyl)benzyl)carbamate, reference compound], the “Body weights (Final Day) (Mean ± SD)” value in data set [2] (setting [6]) is 26.5 ± 1.58. In addition, the “Log10 CFU/g [Mean ± SD] Blood” value in data set [2] (setting [6]) is recorded as “BLOQ”. Moreover, the “Log10 CFU/g [Mean ± SD] Kidneys” value in data set [2] (setting [6]) is given as “BLOQ”. In [2] (setting [6]), the “Log10 CFU/g [Mean ± SD] Liver” value is “BLOQ”. Also, the “Log10 CFU/g [Mean ± SD] Spleen” value in data set [2] (setting [6]) is given as “BLOQ”. Further, the “Clinical observation (Mean Score) Hunched Posture” value in data set [2] (Day (0)), in [2] (Day (1)), in [2] (Day (2)), in data set [2] (Day (3)), in [2] (Day (4)) and in data set [2] (Day (5)) was 0.0 each time. Moreover, the “Clinical observation (Mean Score) Hunched Posture” value in data set [2] (Day (6)), in data set [2] (Day (7)), in data set [2] (Day (−1)) and in data set [2] (Day (−2)) was 0.0 each time. Further, the “Clinical observation (Mean Score) Rough coat” value turned out to be 0.0 in data set [2] (Day (0)); 0.0 in data set [2] (Day (1)); 0.0 in data set [2] (Day (2)); 0.0 in data set [2] (Day (3)); 0.0 in data set [2] (Day (4)); 0.1 in data set [2] (Day (5)). Moreover, the “Clinical observation (Mean Score) Rough coat” value is 0.1 in [2] (Day (6)), 0.2 in [2] (Day (7)), 0.0 in data set [2] (Day (−1)) and 0.0 in data set [2] (Day (−2)). Also, the “Clinical observation (Mean Score) hyperpnea” value in data set [2] (Day (0)), in data set [2] (Day (1)), in [2] (Day (2)), in [2] (Day (3)), in data set [2] (Day (4)) and in data set [2] (Day (5)) was 0.0 each time. Also, the “Clinical observation (Mean Score) hyperpnea” value in data set [2] (Day (6)), in [2] (Day (7)), in data set [2] (Day (−1)) and in data set [2] (Day (−2)) was 0.0 in each case. The “Bacteria in treated animals” value in data set [2] (day 7, compound 1 at 50 mg/kg) is listed as “BLOQ”. Also, the “Kidney -Raw data on Vancomycin (32 μg/ml) plates” value in [2] (setting [7]) was “BLOQ”. In addition, the “Liver-Raw data on Vancomycin (32 μg/ml) plates” value in data set [2] (setting [7]) is listed as “BLOQ”. In addition, the “Spleen -Raw data on Vancomycin (32 μg/ml) plates” value in data set [2] (setting [7]) is given as “BLOQ”. Also, in [2] (individual animals, day 7 PI, 1 mg/kg, PO, twice daily(q12h), 9 days), the “Blood -Raw data on Vancomycin (32 μg/ml) plates - on day 7 PI” value is “BLOQ”. Also, the “clinical condition of animals” value in [2] (treated groups) is reported as “apparently normal”.
Consider `Nc1ccccc1NC(=O)c1ccc(NC(=O)COCc2cn(CCO)nn2)cc1` [HO53], for which, in the data set on Caco-2 cells, the “Caco-2 Permeability A-B dir.” value is given as “Low” and the Active efflux result was “Yes”. In addition, the “Plasma stability Mouse” value in “Plasma stability Mouse” is on record as “Low”. Further, the “Plasma stability Rat” value in the data set “Plasma stability Rat” is “High”. Further, the “Stability SGD, SIF w. Enzymes” value in data set [3] is reported as “High”. Moreover, in data set [4], the “C_max IV - rat” value was determined as 21 µM, the “V-d IV - rat” value came out at 1.7 L/kg and the bioavailability is 3%. Further, the “C_max PO - rat” value in data set [4] (PO) is 0.09 µM. Further, the half-life in data set [4] (setting [8]) is 35 min. For the same compound, the half-life in data set [4] (setting [9]) amounted to 126 min. Moreover, the MTD at 7 days in “in vivo” was > 50 mg/kg. In data set [5], the “Dose Esc. Tox mouse PO” value is reported as >100 mg/kg and the “Dose Esc. Tox mouse iv” value is given as >100 mg/kg.
As to `Nc1ccccc1NC(=O)c1ccc(OCc2cn(CCO)nn2)cc1` [HO56], in the data set with Caco-2 cells, the “Caco-2 Permeability A-B dir.” value is listed as “Low” and the Active efflux result is reported as “Yes”. The “Plasma stability Mouse” value in the data set “Plasma stability Mouse” is “High”. Besides, in the data set “Plasma stability Rat”, the “Plasma stability Rat” value is recorded as “High”. Also, the “Stability SGD, SIF w. Enzymes” value in data set [3] is recorded as “High”. Besides, in data set [4], the “C_max IV - rat” value worked out at 26 µM, the “V-d IV - rat” value was determined as 3.07 L/kg and the bioavailability worked out at 16%. Also, the “C_max PO - rat” value in data set [4] (PO) was 1.2 µM. For the same compound, in [4] (setting [8]), the half-life turned out to be 132 min. Also, the half-life in data set [4] (setting [9]) came to 94 min. Moreover, in the data set “in vivo”, the MTD at 7 days was > 50 mg/kg. For the same compound, in [5], the “Dose Esc. Tox mouse PO” value was >200 mg/kg and the “Dose Esc. Tox mouse iv” value is given as 10 mg/kg.
